Data taken from ChEMBL document CHEMBL5032528, “Development of novel tetrahydroisoquinoline-hydroxamate conjugates as potent dual SERDs/HDAC inhibitors for the treatment of breast cancer” (Eur J Med Chem, 2021).
Active and inactive are the calls of the source. The rule behind the calls is not given here.

Experiments:
[1] = Lipophilicity, logD of compound in n-octanol and phosphate buffer at pH 7.4 after 1.5 hrs by HPLC analysis; type: physicochemical
[2] = Stability in human liver microsomes assessed as half life; type: ADME, Microsome
Ishikawa [3] = assay: Induction of human ishikawa cells proliferation at 300 nM measured after 48 hrs by CCK8 assay; type: functional
MCF7 [4] = assay: Antiproliferative activity against human MCF7 cells assessed as reduction in cell growth measured after 6 days by WST8 assay; type: functional; details: time 6 day
in vitro = details: human, liver microsomes
MDA-MB-231 [5] = assay: Antimigratory activity against human MDA-MB-231 cells measured after 48 hrs by scratch wound-healing assay; type: functional, cell-based
[6] = Stability in human plasma assessed as half life; type: ADME, cell-free
Histone deacetylase 4 = Histone deacetylase 4 (Homo sapiens, UniProt P56524); assay: Inhibition of HDAC4 (unknown origin)
Histone deacetylase 4, sequence (P56524 whole entry): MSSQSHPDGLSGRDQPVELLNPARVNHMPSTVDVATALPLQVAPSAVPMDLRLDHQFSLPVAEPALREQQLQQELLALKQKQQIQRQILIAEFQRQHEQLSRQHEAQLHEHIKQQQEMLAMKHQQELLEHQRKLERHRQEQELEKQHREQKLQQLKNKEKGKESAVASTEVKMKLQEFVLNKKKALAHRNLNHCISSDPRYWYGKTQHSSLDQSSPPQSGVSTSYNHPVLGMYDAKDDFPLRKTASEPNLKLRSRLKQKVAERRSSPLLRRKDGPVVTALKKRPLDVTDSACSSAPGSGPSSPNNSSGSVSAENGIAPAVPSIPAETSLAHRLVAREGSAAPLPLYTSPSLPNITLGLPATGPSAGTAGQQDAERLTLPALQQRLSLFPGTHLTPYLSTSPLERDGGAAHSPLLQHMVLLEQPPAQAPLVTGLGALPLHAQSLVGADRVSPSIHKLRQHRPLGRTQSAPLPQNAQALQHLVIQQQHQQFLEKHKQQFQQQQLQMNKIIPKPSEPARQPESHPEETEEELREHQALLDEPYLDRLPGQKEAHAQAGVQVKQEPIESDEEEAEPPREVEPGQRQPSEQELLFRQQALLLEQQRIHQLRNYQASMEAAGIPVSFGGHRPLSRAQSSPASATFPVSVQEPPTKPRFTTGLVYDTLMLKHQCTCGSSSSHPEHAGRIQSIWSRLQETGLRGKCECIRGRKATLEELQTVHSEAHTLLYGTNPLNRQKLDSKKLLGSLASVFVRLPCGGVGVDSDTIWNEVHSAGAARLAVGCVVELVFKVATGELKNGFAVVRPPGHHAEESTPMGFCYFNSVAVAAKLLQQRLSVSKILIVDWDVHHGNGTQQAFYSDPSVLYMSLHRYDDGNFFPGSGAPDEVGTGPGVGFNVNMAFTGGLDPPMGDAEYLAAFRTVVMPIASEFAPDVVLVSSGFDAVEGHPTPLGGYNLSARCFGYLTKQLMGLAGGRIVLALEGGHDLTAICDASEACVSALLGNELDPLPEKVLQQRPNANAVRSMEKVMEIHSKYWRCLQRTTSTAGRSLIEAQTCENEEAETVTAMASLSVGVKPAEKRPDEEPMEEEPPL

[7] = molecular target: T1, Estrogen receptor (Homo sapiens) (UniProt P03372); assay: Inhibition of ERalpha signaling in human MCF7 cells at 10 uM measured after 24 hrs by Western blot assay; type: cell-based
T1 sequence (whole entry): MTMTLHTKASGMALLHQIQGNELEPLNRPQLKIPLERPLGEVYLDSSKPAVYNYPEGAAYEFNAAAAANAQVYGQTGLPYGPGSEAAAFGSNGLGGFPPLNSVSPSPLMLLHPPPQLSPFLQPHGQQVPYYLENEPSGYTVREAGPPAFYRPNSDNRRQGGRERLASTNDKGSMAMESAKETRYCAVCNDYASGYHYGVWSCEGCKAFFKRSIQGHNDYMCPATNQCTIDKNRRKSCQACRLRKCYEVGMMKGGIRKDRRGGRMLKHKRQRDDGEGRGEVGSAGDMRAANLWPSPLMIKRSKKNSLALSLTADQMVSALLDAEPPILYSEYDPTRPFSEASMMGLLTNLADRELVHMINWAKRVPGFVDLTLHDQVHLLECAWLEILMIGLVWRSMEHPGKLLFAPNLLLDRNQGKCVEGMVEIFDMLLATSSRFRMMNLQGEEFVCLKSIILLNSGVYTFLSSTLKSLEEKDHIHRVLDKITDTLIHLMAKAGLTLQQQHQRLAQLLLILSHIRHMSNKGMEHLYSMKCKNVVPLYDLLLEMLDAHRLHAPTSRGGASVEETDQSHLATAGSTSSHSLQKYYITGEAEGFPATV

[8] = molecular target: T1, Estrogen receptor (Homo sapiens); assay: Inhibition of ERalpha signaling in human MCF7 cells measured after 24 hrs by Western blot assay; type: cell-based; details: dose 10-10000 nM
MCF7 [9] = assay: Antitumor activity against human MCF7 cells xenografted in BALB/c nude mouse assessed as TGI at 5 mg/kg/day, iv administered for 21 days; type: functional; details: 504 h, time 21 day, read-out: TGI
[10] = molecular target: T1, Estrogen receptor (Homo sapiens); assay: Inhibition of ERalpha signaling in human MCF7 cells at 1 uM measured after 24 hrs by Western blot assay; type: cell-based
[11] = molecular target: T1, Estrogen receptor (Homo sapiens); assay: Antagonist activity at ERalpha in human MCF7 cells assessed as reduction in E2-induced PGR gene expression incubated for 24 hrs by qRT-PCR analysis; type: cell-based; details: filed as antagonist, dose 3-300 nM
[12] = molecular target: T1, Estrogen receptor (Homo sapiens); assay: Antagonist activity at ERalpha in human MCF7 cells assessed as reduction in E2-induced GREB1 gene expression incubated for 24 hrs by qRT-PCR analysis; type: cell-based; details: filed as antagonist, dose 3-300 nM
[13] = molecular target: T2, Protein deacetylase HDAC6 (Homo sapiens, UniProt Q9UBN7); assay: Inhibition of HDAC6 (unknown origin) using Ac-peptide as substrate preincubated for 15 mins followed by substrate addition and measured after 60 mins by fluorescence assay
T2 sequence (Q9UBN7 whole entry): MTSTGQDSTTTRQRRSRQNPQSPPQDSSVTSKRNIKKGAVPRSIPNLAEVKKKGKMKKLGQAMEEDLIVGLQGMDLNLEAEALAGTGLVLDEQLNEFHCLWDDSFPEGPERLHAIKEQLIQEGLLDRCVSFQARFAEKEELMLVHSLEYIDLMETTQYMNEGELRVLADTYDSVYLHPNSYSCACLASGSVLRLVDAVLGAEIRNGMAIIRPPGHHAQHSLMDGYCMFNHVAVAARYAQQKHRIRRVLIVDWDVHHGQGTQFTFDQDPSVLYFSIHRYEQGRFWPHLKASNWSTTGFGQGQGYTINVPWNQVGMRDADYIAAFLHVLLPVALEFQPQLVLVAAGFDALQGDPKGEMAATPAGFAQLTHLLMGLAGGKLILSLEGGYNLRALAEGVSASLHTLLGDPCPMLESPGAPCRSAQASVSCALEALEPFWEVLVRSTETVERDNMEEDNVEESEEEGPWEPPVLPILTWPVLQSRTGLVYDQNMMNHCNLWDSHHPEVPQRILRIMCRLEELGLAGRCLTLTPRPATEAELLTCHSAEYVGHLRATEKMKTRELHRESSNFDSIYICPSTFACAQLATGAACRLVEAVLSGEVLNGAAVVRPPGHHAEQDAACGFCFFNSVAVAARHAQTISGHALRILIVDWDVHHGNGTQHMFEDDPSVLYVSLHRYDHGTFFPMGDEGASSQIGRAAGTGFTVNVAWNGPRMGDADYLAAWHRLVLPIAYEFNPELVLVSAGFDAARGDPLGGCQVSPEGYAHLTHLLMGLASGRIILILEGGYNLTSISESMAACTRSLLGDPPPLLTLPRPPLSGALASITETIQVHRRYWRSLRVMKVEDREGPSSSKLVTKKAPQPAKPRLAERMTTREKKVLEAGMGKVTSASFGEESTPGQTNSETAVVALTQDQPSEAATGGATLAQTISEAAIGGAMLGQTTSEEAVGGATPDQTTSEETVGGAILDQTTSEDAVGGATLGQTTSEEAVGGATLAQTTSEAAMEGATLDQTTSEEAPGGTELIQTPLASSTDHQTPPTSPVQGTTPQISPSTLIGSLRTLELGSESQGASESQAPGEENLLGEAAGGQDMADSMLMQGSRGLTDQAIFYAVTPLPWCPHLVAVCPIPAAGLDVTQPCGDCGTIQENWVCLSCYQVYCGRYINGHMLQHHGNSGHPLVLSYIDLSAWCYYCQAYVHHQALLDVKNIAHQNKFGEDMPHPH

[14] = molecular target: Histone deacetylase (Homo sapiens) (UniProt Q13547+O15379+Q9UBN7+Q92769+Q9UQL6+Q8WUI4+Q9BY41+Q96DB2+P56524+Q9UKV0+Q969S8); assay: Inhibition of HDAC in human MDA-MB-231 cells assessed as increase in alpha tubulin acetylation after 24 hrs by immunofluorescence assay; type: cell-based; details: dose 5.0 µM
Estrogen receptor = molecular target: T3, Estrogen receptor (Homo sapiens, UniProt P03372); assay: Displacement of fluorescent estradiol from full-length ERalpha (unknown origin) measured after 2 hrs by fluorescence polarization assay
T3 sequence (P03372 whole entry): T1 sequence (whole entry)

[15] = molecular target: T1, Estrogen receptor (Homo sapiens); assay: Antagonist activity at ERalpha activity in human ishikawa cells assessed as reduction in PGR mRNA expression at 10 to 300 nM for 24 hrs; type: cell-based; details: filed as antagonist, dose 10-300 nM
[16] = Toxicity in Balb/c mouse xenografted with human MCF7 cells assessed as body weight loss at 5 mg/kg/day, iv administered for 21 days; type: organism-based; details: in vivo, 504 h, time 21 day
Mus musculus = assay: In vivo induction of ERalpha degradation in human […] cells xenografted in BALB/c mouse assessed as decrease in ERalpha level at 5 mg/kg/day, iv administered for 21 days by Western blot analysis; type: functional, organism-based; details: time 21.0 day
MDA-MB-231 [17] = assay: Antiproliferative activity against human MDA-MB-231 cells assessed as reduction in cell growth measured after 2 days by CCK8 assay; type: functional, cell-based; details: MDA-MB-231, 48 h
MCF7 [18] = assay: Induction of apoptosis in human MCF7 cells at 0.1 uM incubated for 24 hrs by PI staining based flow cytometry analysis; type: functional, cell-based
[19] = molecular target: T1, Estrogen receptor (Homo sapiens); assay: Induction of ERalpha degradation in human MCF7 cells at 0.1 uM measured after 24 hrs by Western blot analysis; type: cell-based
[20] = Toxicity in Balb/c mouse xenografted with human MCF7 cells assessed as change in organ morphology at 5 mg/kg/day, iv administered for 21 days by H and E staining based analysis; type: organism-based; details: in vivo, 504 h, time 21 day
Ishikawa [21] = assay: Induction of human ishikawa cells proliferation at 39 to 10000 nM measured after 48 hrs by CCK8 assay; type: functional; details: dose 39-10000 nM
Histone deacetylase 1 = Histone deacetylase 1 (Homo sapiens, UniProt Q13547); assay: Inhibition of HDAC1 (unknown origin)
Histone deacetylase 1, sequence (Q13547 whole entry): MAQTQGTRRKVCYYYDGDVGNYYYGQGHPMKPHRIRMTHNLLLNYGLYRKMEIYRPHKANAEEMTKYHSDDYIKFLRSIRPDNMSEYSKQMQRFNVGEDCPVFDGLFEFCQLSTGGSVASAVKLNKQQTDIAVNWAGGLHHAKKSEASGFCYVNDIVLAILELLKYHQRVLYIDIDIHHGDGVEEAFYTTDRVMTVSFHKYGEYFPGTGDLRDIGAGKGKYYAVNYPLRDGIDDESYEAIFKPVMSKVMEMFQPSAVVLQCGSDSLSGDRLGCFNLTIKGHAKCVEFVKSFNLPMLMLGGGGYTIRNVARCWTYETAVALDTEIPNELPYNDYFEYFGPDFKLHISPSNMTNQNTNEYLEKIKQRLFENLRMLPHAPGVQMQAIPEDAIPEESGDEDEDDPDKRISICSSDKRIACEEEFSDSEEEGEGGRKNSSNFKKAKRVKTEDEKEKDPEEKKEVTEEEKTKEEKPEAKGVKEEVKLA

[22] = molecular target: T4, Protein deacetylase HDAC6 (Homo sapiens) (UniProt Q9UBN7); assay: Inhibition of HDAC6 in human MCF7 cells assessed as increase in intracellular acetylation level of alpha-tubulin after 24 hrs by Western blot analysis; type: cell-based; details: dose 10-1000 nM
T4 sequence (whole entry): T2 sequence (Q9UBN7 whole entry)

C[C@]12CC[C@@H]3c4ccc(O)cc4C[C@@H](CCCCCCCCC[S+]([O-])CCCC(F)(F)C(F)(F)F)[C@H]3[C@@H]1CC[C@@H]2O (stereo partly specified) [FULVESTRANT]
logD at 1.5 h [1]: 6.8
half-life [2]: 1.56 min
Activity (Ishikawa [3]): Active
GI50 (MCF7 [4]; Homo sapiens, MCF7, 144 h): 540 nM
CLint scaled (in vitro): 1150 mL/min/kg

CC(C)(F)CN1CCc2cc(O)ccc2C1c1ccc(OCCCCCCC(=O)NO)cc1 (stereo unspecified)
Activity (MDA-MB-231 [5]): Active
half-life [6]: 458 min
IC50 (Histone deacetylase 4): > 1000 nM
inhibition [7]: 100%
inhibition [8]: Dose-Dependent Effect
inhibition in vivo at 5 mg/kg/day (MCF7 [9]): 58%
inhibition [10]: Active
Activity [11]: Dose-Dependent Effect
Activity [12]: Dose-Dependent Effect
IC50 [13]: 62.8 nM
inhibition [14]: Dose-Dependent Effect
IC50 (Estrogen receptor): 90.8 nM
Activity [15]: Active
Activity [16]: Non-Toxic
inhibition (Mus musculus): Active
IC50 (MDA-MB-231 [17]): 380 nM
logD at 1.5 h [1]: 2.49
Activity (MCF7 [18]): Active
Activity [19]: 57%
half-life [2]: 18.8 min
Activity [20]: Non-Toxic
Activity (Ishikawa [21]): inactive
GI50 (MCF7 [4]; Homo sapiens, MCF7, 144 h): 170 nM
IC50 (Histone deacetylase 1): 582 nM
inhibition [22]: Dose-Dependent Effect
CLint scaled (in vitro): 132 mL/min/kg

CC(C)(F)CN1CCc2cc(O)ccc2C1c1ccc(OC2CN(CC(=O)NO)C2)cc1 (stereo unspecified)
IC50 [13]: 175 nM
IC50 (Estrogen receptor): 78.2 nM
Activity [19]: 32%
GI50 (MCF7 [4]; Homo sapiens, MCF7, 144 h): 1820 nM

CC(C)(F)CN1CCc2cc(O)ccc2C1c1ccc(OCCCOc2ccc(C(=O)NO)cc2)cc1 (stereo unspecified)
IC50 (Estrogen receptor): 132 nM
Activity [19]: inactive
GI50 (MCF7 [4]; Homo sapiens, MCF7, 144 h): 460 nM

CC(C)(F)CN1CCc2cc(O)ccc2C1c1ccc(C(=O)NO)cc1 (stereo unspecified)
IC50 (Estrogen receptor): 96.3 nM
Activity [19]: 5%
GI50 (MCF7 [4]; Homo sapiens, MCF7, 144 h): 230 nM

CC(C)(F)CN1CCc2cc(O)ccc2C1c1ccc(OCCCCCC(=O)NO)cc1 (stereo unspecified)
IC50 [13]: 65.9 nM
IC50 (Estrogen receptor): 102 nM
Activity [19]: 31%
GI50 (MCF7 [4]; Homo sapiens, MCF7, 144 h): 950 nM

O=C(CCCCCCC(=O)Nc1ccccc1)NO [VORINOSTAT]
GI50 (MCF7 [4]): 1250 nM
